Experimental data as given in PMC7297664 (2020).

Experiments:
[1] = tested on: RNA 12 (8-oxoG at G11) (RNA, aptamer, 7,8-dihydro-8-oxoguanosine at 11) GGCGAUACCAGCCGAAAGGCCCUUGGCAGCGUC; assay: MST binding check; conditions: Na+ 150 mM (NaCl), 10 nM RNA
[2] = tested on: RNA 9 (canonical theophylline aptamer, Cy5) (RNA, aptamer) GGCGAUACCAGCCGAAAGGCCCUUGGCAGCGUC; assay: MST binding check; conditions: Na+ 150 mM (NaCl), 10 nM RNA
[3] = tested on: RNA 1 (canonical theophylline aptamer) (RNA, aptamer) GGCGAUACCAGCCGAAAGGCCCUUGGCAGCGUC; assay: ITC; conditions: conditions as previously reported (cited)
[4] = tested on: RNA 11 (8-oxoG at G26) (RNA, aptamer, 7,8-dihydro-8-oxoguanosine at 26) GGCGAUACCAGCCGAAAGGCCCUUGGCAGCGUC; assay: MST binding check; conditions: Na+ 150 mM (NaCl), 10 nM RNA
[5] = tested on: RNA 10 (8-oxoG at G25) (RNA, aptamer, 7,8-dihydro-8-oxoguanosine at 25) GGCGAUACCAGCCGAAAGGCCCUUGGCAGCGUC; assay: MST binding check; conditions: Na+ 150 mM (NaCl); TBS: 50 mM Tris-HCl pH 7.5; 10 nM RNA; up to 11.25 mM
[6] = tested on: RNA 10 (8-oxoG at G25) (RNA, aptamer, 7,8-dihydro-8-oxoguanosine at 25) GGCGAUACCAGCCGAAAGGCCCUUGGCAGCGUC; assay: microscale thermophoresis (MST); conditions: Na+ 150 mM (NaCl); TBS pH 7.5, up to 5% DMSO; up to 1 mM; incomplete curve, solubility; abstract gives ≈160 μM
[7] = tested on: RNA 9 (canonical theophylline aptamer, Cy5) (RNA, aptamer) GGCGAUACCAGCCGAAAGGCCCUUGGCAGCGUC; assay: microscale thermophoresis (MST); conditions: Na+ 150 mM (NaCl); TBS: 50 mM Tris-HCl pH 7.5; 10 nM RNA; incubated in ice
[8] = TBS: 50 mM Tris-HCl pH 7.5, up to 11.25 mM
[9] = TBS pH 7.5, up to 5% DMSO, up to 1 mM

SMILES	binding [1, 8]	binding [2, 8]	binding ([3]; printed Kd = NA)	binding [4, 8]	binding [5]	binding [1, 9]	binding [2, 9]	binding [4, 9]	Kd [6] [µM]	Kd ([3]; mean of two runs, 0.72 and 1.98 μM) [µM]	Kd [7] [µM]
Cn1c(=O)c2c(ncn2C)n(C)c1=O	no	no	no	no	no						
Cn1cnc2c1c(=O)[nH]c(=O)n2C						no	no	no	> 160		
Cn1c(=O)c2[nH]cnc2n(C)c1=O	no									1.35	29 ± 35
